Here are results for three compounds from patent US20070099877A1, “N-aryl-thienopyrimidin-4-amines and analogs as activators of caspases and inducers of apoptosis and the use thereof” (Cytovia, Inc., priority 2005, published 2007).

Each structure is given as a SMILES string. Where a name gives a salt, the structure may show the parent alone.

Broadly, the EC50 is the concentration at which the effect is half-maximal.

For one experiment, the system named is human breast cancer cell line T-47D. The experiment can be described thus: Caspase cascade activation (DEVD-R110 fluorogenic substrate) in T-47D cells. It counts as cell-based. The settings on record: Homo sapiens, T47D, 24 h, T47D cells, 24 h; read-out: Caspase activation Potency EC50 T47D (24 h). The method in brief: (§1)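 Cells were exposed to compound at 0.016 to 10 μM final for 24 h or 48 h at 37 °C. They were then lysed with 14 μM N-(Ac-DEVD)-N′-ethoxycarbonyl-R110 in lysolecithin/DTT/PIPES buffer pH 7.2 for 3 h at room temperature (ex 485/em 530 nm). EC50 came from a sigmoidal fit of net RFU relative to untreated control.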
In the case of `COc1cc(Nc2nc(C)nc3ccsc23)cc(OC)c1` [Example 54, N-(3,5-Dimethoxyphenyl)-2-methylthieno[3,2-d]pyrimidin-4-amine], the EC50 turned out to be 27 nM.

As to `COc1cccc(Nc2ncnc3ccsc23)c1` [Example 11, N-(3-Methoxyphenyl)thieno[3,2-d]pyrimidin-4-amine hydrochloride], the EC50 was determined as 555 nM.

In the case of `CCOC(=O)C=Cc1ccc(Nc2ncnc3ccsc23)cc1` [Example 33, 3-[4-(Thieno[3,2-d]pyrimidin-4-ylamino)-phenyl]acrylic acid ethyl ester], the EC50 was above 10000 nM.

Still in this experiment, the particulars now being: Homo sapiens, T47D, 48 h, T-47D cells, 48 h; read-out: Caspase activation Potency EC50 T-47D (48 h).
Consider `COc1cc(Nc2nc(C)nc3ccsc23)cc(OC)c1` [Example 54, N-(3,5-Dimethoxyphenyl)-2-methylthieno[3,2-d]pyrimidin-4-amine], for which the 50% effective concentration (EC50) is 30 nM.

Turning to `COc1cccc(Nc2ncnc3ccsc23)c1` [Example 11, N-(3-Methoxyphenyl)thieno[3,2-d]pyrimidin-4-amine hydrochloride], the EC50 is 1190 nM.

`CCOC(=O)C=Cc1ccc(Nc2ncnc3ccsc23)cc1` [Example 33, 3-[4-(Thieno[3,2-d]pyrimidin-4-ylamino)-phenyl]acrylic acid ethyl ester]: the EC50 was above 10000 nM.

A further experiment has as its system human lung cancer cell line H1299. The experiment can be described thus: Caspase cascade activation in H1299 cells. Type of experiment: cell-based. The settings on record: NCI-H1299, 24 h, read-out: Caspase activation Potency EC50 H1299 (24 h). The method in brief:
as §1
For the compound `COc1cccc(Nc2ncnc3ccsc23)c1` [Example 11, N-(3-Methoxyphenyl)thieno[3,2-d]pyrimidin-4-amine hydrochloride], the EC50 was found to be 5370 nM.

As to `CCOC(=O)C=Cc1ccc(Nc2ncnc3ccsc23)cc1` [Example 33, 3-[4-(Thieno[3,2-d]pyrimidin-4-ylamino)-phenyl]acrylic acid ethyl ester], the EC50 is above 10000 nM.

A further experiment relates to human hepatocellular carcinoma cell line SNU398. Description: Caspase cascade activation in SNU398 cells. The settings on record: Homo sapiens, SNU-398, 48 h, read-out: Caspase activation Potency EC50 SNU398 (48 h). It counts as cell-based. The method in brief:
as §1
`COc1cc(Nc2nc(C)nc3ccsc23)cc(OC)c1` [Example 54, N-(3,5-Dimethoxyphenyl)-2-methylthieno[3,2-d]pyrimidin-4-amine]: the EC50 stood at 256 nM.

As to `COc1cccc(Nc2ncnc3ccsc23)c1` [Example 11, N-(3-Methoxyphenyl)thieno[3,2-d]pyrimidin-4-amine hydrochloride], the EC50 was found to be 5730 nM.

Take `CCOC(=O)C=Cc1ccc(Nc2ncnc3ccsc23)cc1` [Example 33, 3-[4-(Thieno[3,2-d]pyrimidin-4-ylamino)-phenyl]acrylic acid ethyl ester]: the EC50 was above 10000 nM.

The test system of the next experiment is human colon carcinoma cell line HCT116. Description: Caspase cascade activation in HCT116 cells. The settings on record: Homo sapiens, HCT-116, 48 h, read-out: Caspase activation Potency EC50 HCT116 (48 h). It counts as cell-based. The method in brief:
as §1
In the case of `COc1cc(Nc2nc(C)nc3ccsc23)cc(OC)c1` [Example 54, N-(3,5-Dimethoxyphenyl)-2-methylthieno[3,2-d]pyrimidin-4-amine], the EC50 worked out at 61 nM.

On to `COc1cccc(Nc2ncnc3ccsc23)c1` [Example 11, N-(3-Methoxyphenyl)thieno[3,2-d]pyrimidin-4-amine hydrochloride], for which the EC50 is above 10000 nM.

On to `CCOC(=O)C=Cc1ccc(Nc2ncnc3ccsc23)cc1` [Example 33, 3-[4-(Thieno[3,2-d]pyrimidin-4-ylamino)-phenyl]acrylic acid ethyl ester], for which the EC50 is above 10000 nM.

A further experiment has as its system human breast cancer cell line T-47D. Description: Inhibition of cell proliferation (GI50, CellTiter-Glo) in T-47D cells. It counts as cell-based. The settings on record: Table IV, T47D cells, read-out: GI50 in Multi-Cancer Cells T47D. As for the experimental part: (§2) Human breast cancer cell lines T-47D, MX-1 and MDAMB435, human colon cancer cell line HT29, and human lung cancer cell line H1299 were grown and harvested as in Example 75. An aliquot of […] of cells (4.4×10^4 cells/mL) was added to a well of a 96-well microtiter plate containing 5 μL of a 10% DMSO in RPMI-1640 media solution containing 10 nM to 100 μM of N-(2,5-dimethoxyphenyl)-2-methylthieno[3,2-d]pyrimidin-4-amine (1 nM to 10 μM final). An aliquot of 45 μL of cells was added to a well of a 96-well microtiter plate containing 5 μL of a 10% DMSO in RPMI-1640 media solution without compound as the control sample for maximal cell proliferation (Lmax). The samples were mixed by agitation and then incubated at 37° C. for 48 h in a 5% CO2-95% humidity incubator. After incubation, the samples were removed from the incubator and 25 μL of CellTiter-Glo™ reagent (Promega) was added. The samples were mixed by agitation and incubated at room temperature for 10-15 min. Plates were then read using a luminescent plate reader (Model SPECTRAfluor Plus, Tecan) to give Ltest values.
(§3) Baseline for GI50 (dose for 50% inhibition of cell proliferation) of initial cell numbers was determined by adding an aliquot of 45 μL of cells or 45 μL of media, respectively, to wells of a 96-well microtiter plate containing 5 μL of a 10% DMSO in RPMI-1640 media solution. The samples were mixed by agitation and then incubated at 37° C. for 0.5 h in a 5% CO2-95% humidity incubator. After incubation, the samples were removed from the incubator and 25 μL of CellTiter-Glo™ reagent (Promega) was added. The samples were mixed by agitation and incubated at 37° C. for 10-15 min at room temperature in a 5% CO2-95% humidity incubator. Fluorescence was read as above, (LStart) defining luminescence for initial cell number used as baseline in GI50 determinations.
(§4) GI50 (dose for 50% inhibition of cell proliferation) is the concentration where [(LTest−Lstart)/(LMax−Lstart)]=0.5.
Turning to `COc1cc(Nc2nc(C)nc3ccsc23)cc(OC)c1` [Example 54, N-(3,5-Dimethoxyphenyl)-2-methylthieno[3,2-d]pyrimidin-4-amine], the GI50 was 40 nM.

The next experiment deals with human breast cancer cell line MX-1. The experiment can be described thus: Inhibition of cell proliferation (GI50) in MX-1 cells. The settings on record: Table IV, MX1 cells, read-out: GI50 in Multi-Cancer Cells MX1. Type of experiment: cell-based. As for the experimental part: as §2, §3, §4
On to `COc1cc(Nc2nc(C)nc3ccsc23)cc(OC)c1` [Example 54, N-(3,5-Dimethoxyphenyl)-2-methylthieno[3,2-d]pyrimidin-4-amine], for which the GI50 is 100 nM.

The test system of another experiment is human breast cancer cell line MDAMB435. Description: Inhibition of cell proliferation (GI50) in MDAMB435 cells. Type of experiment: cell-based. The settings on record: MDA-MB-435, Table IV, read-out: GI50 in Multi-Cancer Cells MDAMB435. As for the experimental part:
as §2, §3, §4
For the compound `COc1cc(Nc2nc(C)nc3ccsc23)cc(OC)c1` [Example 54, N-(3,5-Dimethoxyphenyl)-2-methylthieno[3,2-d]pyrimidin-4-amine], the GI50 came to 121 nM.

A further experiment deals with human hepatocellular carcinoma cell line SNU398. Description: Inhibition of cell proliferation (GI50) in SNU398 cells. It counts as cell-based. The settings on record: SNU-398, Table IV, read-out: GI50 in Multi-Cancer Cells SNU398. The protocol: as §2, §3, §4
(§5) Several compounds were tested in multi cancer cell lines, including human breast cancer cell lines T-47D, MX-1, SKBR3 and MDAMB435, human hepatocellular carcinoma cell line SNU398, human colon carcinoma cell line HCT116, human sarcoma cell line MES-SA and multi-drug resistant (MDR) human sarcoma cell line MES-SA/ADR, murine leukemia cell line P388 and multi-drug resistant (MDR) murine leukemia cell line P388ADR, and the data are summarized in Table IV.
Regarding `COc1cc(Nc2nc(C)nc3ccsc23)cc(OC)c1` [Example 54, N-(3,5-Dimethoxyphenyl)-2-methylthieno[3,2-d]pyrimidin-4-amine], the GI50 is 1070 nM.

The next experiment deals with human colon carcinoma cell line HCT116. The experiment can be described thus: Inhibition of cell proliferation (GI50) in HCT116 cells. Type of experiment: cell-based. The settings on record: HCT-116, Table IV, read-out: GI50 in Multi-Cancer Cells HCT116. As for the experimental part:
as §2, §3, §4, §5
Take `COc1cc(Nc2nc(C)nc3ccsc23)cc(OC)c1` [Example 54, N-(3,5-Dimethoxyphenyl)-2-methylthieno[3,2-d]pyrimidin-4-amine]: the GI50 was 6580 nM.

Another experiment concerns human sarcoma cell line MES-SA. Description: Inhibition of cell proliferation (GI50) in MES-SA cells. It counts as cell-based. The settings on record: Table IV, read-out: GI50 in Multi-Cancer Cells MES-SA. The protocol: as §2, §3, §4, §5
Turning to `COc1cc(Nc2nc(C)nc3ccsc23)cc(OC)c1` [Example 54, N-(3,5-Dimethoxyphenyl)-2-methylthieno[3,2-d]pyrimidin-4-amine], the GI50 is 788 nM.

The next experiment has as its system multi-drug resistant (MDR) human sarcoma cell line MES-SA/ADR. The experiment can be described thus: Inhibition of cell proliferation (GI50) in MES-SA/ADR cells. The settings on record: Table IV, read-out: GI50 in Multi-Cancer Cells MES-SA/ADR. It counts as cell-based. The protocol:
as §2, §3, §4, §5
Consider `COc1cc(Nc2nc(C)nc3ccsc23)cc(OC)c1` [Example 54, N-(3,5-Dimethoxyphenyl)-2-methylthieno[3,2-d]pyrimidin-4-amine], for which the GI50 stood at 2000 nM.

The subject of a further experiment is murine leukemia cell line P388. The experiment can be described thus: Inhibition of cell proliferation (GI50) in P388 cells. Type of experiment: cell-based. The settings on record: Mus musculus, Table IV, read-out: GI50 in Multi-Cancer Cells P388. The protocol:
as §2, §3, §4, §5
`COc1cc(Nc2nc(C)nc3ccsc23)cc(OC)c1` [Example 54, N-(3,5-Dimethoxyphenyl)-2-methylthieno[3,2-d]pyrimidin-4-amine]: the GI50 is 1050 nM.

In another experiment the test system is multi-drug resistant (MDR) murine leukemia cell line P388ADR. Description: Inhibition of cell proliferation (GI50) in P388/ADR cells. It counts as cell-based. The settings on record: Mus musculus, Table IV, read-out: GI50 in Multi-Cancer Cells P388/ADR. As for the experimental part:
as §2, §3, §4, §5
For `COc1cc(Nc2nc(C)nc3ccsc23)cc(OC)c1` [Example 54, N-(3,5-Dimethoxyphenyl)-2-methylthieno[3,2-d]pyrimidin-4-amine], the GI50 was found to be 1100 nM.
